Results taken from patent publication US12403117B2, “Stable pharmaceutical composition containing non-steroidal anti-inflammatory drug derivative” (ZHEJIANG YUEJIA PHARMACEUTICALS CO., LTD, priority 2017, dated 2025).
Values joined by “and” are separate entries in the source; they are usually repeats but may differ in a detail not shown here. Equal values may be shown once. One block for each molecule: values may come before it.

Columns and labels:
Type in all cases: physicochemical
[1] = Repose angle by injection method
Description: The “repose angle” formed by stacking the powders or particles reflects its fluidity. The term “repose angle” generally refers to the maximum angle formed by the free slope of the layer of the stacked powders or particles and the horizontal plane. The smaller the repose angle, the smaller the friction between the powders or particles, and the better the fluidity. Better fluidity is more convenient for dissolution and use of the powders or particles. Methods for measuring the repose angle are well known to those skilled in the art. The repose angle is measured by an “injection method” in the examples of the invention, that is, the particles flow out of the funnel and fall on the plane to form a cone, and the base angle is the repose angle.

[2] = Stability of aqueous solution of 2-(diethylamino)-ethyl-2-(4-isobutylphenyl) propionate hydrochloride at 25° C.±2° C. (HPLC); settings: 10 g in 50 mL sterile water
Description: 10 g of 2-(diethylamino)-ethyl-2-(4-isobutylphenyl) propionate hydrochloride prepared in Example 5 was dissolved in 50 mL of sterile water and placed at 25° C.±2° C. Samples were taken on day 0, week 1, week 2, week 3 and week 4 to detect the contents of the main drug and specific impurities (ibuprofen), wherein the content of the main drug and specific impurities were detected by high-performance liquid chromatography (area normalization). The conditions of HPLC were as follows: • Column: Inertsil ODS-3 (250×4.6 mm, 5 μm) or equivalent • Flow rate: 1.0 ml/min • Column temperature: 33° C. • Wavelength: 264 nm • Injection volume: 10 μl • Mobile phase: (3.065 g sodium acetate+150 ml acetic acid+375 ml water): acetonitrile (35:65).

[3] = Acidity: pH value of the aqueous solution; settings: 25 ± 0.5° C.
[4] = Stability of aqueous solution of 2-(diethylamino)-ethyl-2-acetoxybenzoate hydrochloride at 2-8° C. (HPLC); settings: 5 g in 50 mL sterile water
Description: 5 g of 2-(diethylamino)-ethyl-2-acetoxybenzoate hydrochloride prepared in Example 1 was dissolved in 50 mL of sterile water and placed at 2-8° C. Samples were taken on day 0, month 0.5, month 1, month 2 and month 3 to detect the contents of the main drug and specific impurities (salicylic acid-(2-diethylaminoethyl ester) hydrochloride, acetylsalicylic acid, salicylic acid) and related substances, wherein the content of the main drug and specific impurities were detected by high-performance liquid chromatography (external standard method), and the related substances were detected by high-performance liquid chromatography (principal component self-control method without correction factors). The conditions of HPLC were as follows: • Column: Inertsil ODS-3 (250×4.6 mm, 5 μm) or equivalent • Flow rate: 1.0 ml/min • Column temperature: 33° C. • Wavelength: 276 nm, 303 nm • Injection volume: 10 μl • Mobile phase: water (15 ml of triethylamine+3.5 ml of 10% tetrabutylammonium hydroxide, adding water to 1000 ml): methanol: glacial acetic acid (63:27:10).

Dissociation constant = assay: Dissociation constant
Description: (§1) The physical and chemical properties of the synthesized crystals of 2-(diethylamino)-ethyl-2-acetoxybenzoate hydrochloride are shown in Table 1.

[5] = Solubility (physical and chemical properties, Table 1)
Description: as §1

Repose angle [1]: 40 ° | Ibuprofen (impurity) ([2]; week 0): Not detected | Main Drug ([2]; week 0): 100.00% | Unknown peak ([2]; week 0): Not detected | Ibuprofen (impurity) ([2]; week 1): 0.39% | Main Drug ([2]; week 1): 99.51% | Unknown peak ([2]; week 1): 0.10% | Ibuprofen (impurity) ([2]; week 2): 1.69% | Main Drug ([2]; week 2): 98.12% | Unknown peak ([2]; week 2): 0.19% | Ibuprofen (impurity) ([2]; week 3): 4.04% | Main Drug ([2]; week 3): 95.83% | Unknown peak ([2]; week 3): 0.13% | Unknown peak ([2]; week 4): 0.21%
Compound: CCN(CC)CCOC(=O)C(C)c1ccc(CC(C)C)cc1.Cl (stereo not shown) [2-(diethylamino)-ethyl-2-(4-isobutylphenyl) propionate hydrochloride]

Compound: CCN(CC)CCOC(=O)c1ccccc1OC(C)=O.Cl [2-(diethylamino)-ethyl-2-acetoxybenzoate hydrochloride]
Acidity: pH value of the 2% aqueous solution [3]: product at 25 ± 0.5 °C is 4.0-6.0 | Repose angle [1]: 42° | Main Drug ([4]; month 0): 99.48% | Salicylic acid (impurity) ([4]; month 0): 0.0028% | Salicylic acid-(2-diethylaminoethyl ester) hydrochloride (impurity) ([4]; month 0): 0.51% | Main Drug ([4]; month 0.5): 99.32% | Salicylic acid (impurity) ([4]; month 0.5): 0.0035% | Salicylic acid-(2-diethylaminoethyl ester) hydrochloride (impurity) ([4]; month 0.5): 0.67% | Acetylsalicylic acid (impurity) ([4]; month 1): 0.018% | Main Drug ([4]; month 1): 97.59% | Salicylic acid (impurity) ([4]; month 1): 0.0044% | Salicylic acid-(2-diethylaminoethyl ester) hydrochloride (impurity) ([4]; month 1): 2.38% | Acetylsalicylic acid (impurity) ([4]; month 2): 0.033% | Main Drug ([4]; month 2): 94.86% | Salicylic acid (impurity) ([4]; month 2): 0.012% | Salicylic acid-(2-diethylaminoethyl ester) hydrochloride (impurity) ([4]; month 2): 5.09% | Acetylsalicylic acid (impurity) ([4]; month 3): 0.042% | Salicylic acid (impurity) ([4]; month 3): 0.049% | Main Drug ([4]; month 3, hydrochloride): 86% and 86.55% | Dissociation constant (Dissociation constant): 8.82 | Solubility ([5]; in acetone): slightly soluble | Solubility ([5]; in ethyl acetate and ether): insoluble | Solubility ([5]; in water): extremely soluble
